From US9347057B2, “Methods for efficient, expansive user-defined DNA mutagenesis” (THE JOHNS HOPKINS UNIVERSITY, priority 2012, dated 2016)

What was measured:
Format in all cases: cell-based, E. coli
Details in all cases: Escherichia coli
[1] = tested on: wildtype TEM-1 (allele: none); test: MIC assay on agar plates, cells with TEM-1 (no mutation)
Protocol: (§1) Selected single base mutations were re-introduced into TEM-1 by site-directed PFunkel mutagenesis on the 20 μL volume scale. The MIC for ampicillin and piperacillin of the mutants was assessed with and without 6 μg/mL tazobactam by spotting 10^4 CFU on Mueller-Hinton agar plates containing 50 μg/mL Spec, 300 μM IPTG, and √2-fold increments of either ampicillin or piperacillin. Plates were incubated at 37° C. for 12 hrs.

TEM-1 M69L allele = test: MIC assay on agar plates, TEM-1 allele M69L
Protocol: as §1

TEM-1 Y105D allele = test: MIC assay on agar plates, TEM-1 allele Y105D
Protocol: as §1

TEM-1 Y105N allele = test: MIC assay on agar plates, TEM-1 allele Y105N
Protocol: as §1

TEM-1 Y105S allele = test: MIC assay on agar plates, TEM-1 allele Y105S
Protocol: as §1

TEM-1 S235T allele = test: MIC assay on agar plates, TEM-1 allele S235T
Protocol: as §1

TEM-1 R244S allele = test: MIC assay on agar plates, TEM-1 allele R244S
Protocol: as §1

TEM-1 N276D allele = test: MIC assay on agar plates, TEM-1 allele N276D
Protocol: as §1

[2] = + tazobactam 6 μg/mL, median of three replicates
[3] = + tazobactam 6 μg/mL, replicate 1
[4] = + tazobactam 6 μg/mL, replicate 2
[5] = + tazobactam 6 μg/mL, replicate 3
[6] = − tazobactam, median of three replicates

Measured: MIC

CC1(C)S[C@@H]2[C@H](NC(=O)[C@H](N)c3ccccc3)C(=O)N2[C@H]1C(=O)O [ampicillin]
512 µg/mL: TEM-1 M69L allele; [3] | TEM-1 S235T allele; [5]
362 µg/mL: TEM-1 Y105D allele; [5] | TEM-1 S235T allele; [2] | TEM-1 S235T allele; [4]
256 µg/mL: TEM-1 Y105D allele; [2] | TEM-1 Y105D allele; [3] | TEM-1 Y105D allele; [4] | TEM-1 S235T allele; [3]
1450 µg/mL: TEM-1 Y105D allele; [6] | TEM-1 Y105D allele; − tazobactam, replicate 1 | TEM-1 Y105D allele; − tazobactam, replicate 2 | TEM-1 Y105D allele; − tazobactam, replicate 3 | TEM-1 Y105N allele; [2] | TEM-1 Y105N allele; [4] | TEM-1 Y105N allele; [5]
1020 µg/mL: TEM-1 Y105S allele; [2] | TEM-1 Y105S allele; [4] | TEM-1 Y105S allele; [5]
90.5 µg/mL: TEM-1 R244S allele; [2] | TEM-1 R244S allele; [5] | TEM-1 N276D allele; [2] | TEM-1 N276D allele; [3] | TEM-1 N276D allele; [4]
2900 µg/mL: TEM-1 Y105S allele; [6] | TEM-1 Y105S allele; − tazobactam, replicate 1 | TEM-1 Y105S allele; − tazobactam, replicate 2 | TEM-1 Y105S allele; − tazobactam, replicate 3 | TEM-1 R244S allele; − tazobactam, replicate 1
148 µg/mL: TEM-1 Y105N allele; [3]
5790 µg/mL: TEM-1 M69L allele; − tazobactam, replicate 1 | TEM-1 Y105N allele; [6] | TEM-1 Y105N allele; − tazobactam, replicate 2 | TEM-1 Y105N allele; − tazobactam, replicate 3
724 µg/mL: TEM-1 M69L allele; [2] | TEM-1 M69L allele; [4] | TEM-1 M69L allele; [5] | TEM-1 Y105S allele; [3]
22.6 µg/mL: [1]; [2] | [1]; [4] | [1]; [5]
64 µg/mL: TEM-1 R244S allele; [3]
8190 µg/mL: [1]; [6] | [1]; − tazobactam, replicate 1 | [1]; − tazobactam, replicate 2 | [1]; − tazobactam, replicate 3 | TEM-1 M69L allele; [6] | TEM-1 M69L allele; − tazobactam, replicate 2 | TEM-1 M69L allele; − tazobactam, replicate 3 | TEM-1 S235T allele; [6] | TEM-1 S235T allele; − tazobactam, replicate 1 | TEM-1 S235T allele; − tazobactam, replicate 2 | TEM-1 S235T allele; − tazobactam, replicate 3 | TEM-1 N276D allele; [6] | TEM-1 N276D allele; − tazobactam, replicate 1 | TEM-1 N276D allele; − tazobactam, replicate 2 | TEM-1 N276D allele; − tazobactam, replicate 3
16 µg/mL: [1]; [3]
4100 µg/mL: TEM-1 Y105N allele; − tazobactam, replicate 1 | TEM-1 R244S allele; [6] | TEM-1 R244S allele; − tazobactam, replicate 2 | TEM-1 R244S allele; − tazobactam, replicate 3
128 µg/mL: TEM-1 R244S allele; [4] | TEM-1 N276D allele; [5]

CCN1CCN(C(=O)N[C@@H](C(=O)N[C@@H]2C(=O)N3[C@@H]2SC(C)(C)[C@@H]3C(=O)O)c2ccccc2)C(=O)C1=O [piperacillin]
32 µg/mL: TEM-1 M69L allele; [4] | TEM-1 Y105N allele; [3] | TEM-1 S235T allele; [3]
2900 µg/mL: [1]; [6] | [1]; − tazobactam, replicate 1 | [1]; − tazobactam, replicate 2 | [1]; − tazobactam, replicate 3 | TEM-1 M69L allele; [6] | TEM-1 M69L allele; − tazobactam, replicate 2 | TEM-1 M69L allele; − tazobactam, replicate 3 | TEM-1 S235T allele; [6] | TEM-1 S235T allele; − tazobactam, replicate 1 | TEM-1 S235T allele; − tazobactam, replicate 2 | TEM-1 S235T allele; − tazobactam, replicate 3 | TEM-1 N276D allele; [6] | TEM-1 N276D allele; − tazobactam, replicate 1 | TEM-1 N276D allele; − tazobactam, replicate 2 | TEM-1 N276D allele; − tazobactam, replicate 3
2.83 µg/mL: TEM-1 R244S allele; [4]
16 µg/mL: TEM-1 Y105S allele; [2] | TEM-1 Y105S allele; [3] | TEM-1 Y105S allele; [4] | TEM-1 Y105S allele; [5] | TEM-1 S235T allele; [4]
2050 µg/mL: TEM-1 M69L allele; − tazobactam, replicate 1 | TEM-1 Y105N allele; [6] | TEM-1 Y105N allele; − tazobactam, replicate 1 | TEM-1 Y105N allele; − tazobactam, replicate 2 | TEM-1 Y105N allele; − tazobactam, replicate 3
2 µg/mL: TEM-1 R244S allele; [2] | TEM-1 R244S allele; [3] | TEM-1 R244S allele; [5] | TEM-1 N276D allele; [5]
45 µg/mL: TEM-1 Y105N allele; [2] | TEM-1 Y105N allele; [4] | TEM-1 Y105N allele; [5]
1 µg/mL: [1]; [3] | TEM-1 Y105D allele; [2] | TEM-1 Y105D allele; [3] | TEM-1 Y105D allele; [4] | TEM-1 Y105D allele; [5] | TEM-1 N276D allele; [3]
1450 µg/mL: TEM-1 Y105S allele; [6] | TEM-1 Y105S allele; − tazobactam, replicate 2 | TEM-1 Y105S allele; − tazobactam, replicate 3 | TEM-1 R244S allele; [6] | TEM-1 R244S allele; − tazobactam, replicate 2 | TEM-1 R244S allele; − tazobactam, replicate 3
22.6 µg/mL: TEM-1 M69L allele; [2] | TEM-1 M69L allele; [3] | TEM-1 M69L allele; [5] | TEM-1 S235T allele; [2] | TEM-1 S235T allele; [5]
1020 µg/mL: TEM-1 Y105S allele; − tazobactam, replicate 1 | TEM-1 R244S allele; − tazobactam, replicate 1
1.4 µg/mL: [1]; [2] | [1]; [4] | [1]; [5] | TEM-1 Y105D allele; [6] | TEM-1 Y105D allele; − tazobactam, replicate 1 | TEM-1 Y105D allele; − tazobactam, replicate 2 | TEM-1 Y105D allele; − tazobactam, replicate 3 | TEM-1 N276D allele; [2] | TEM-1 N276D allele; [4]
